Measured values published in patent US10881106B2, “Herbicidal pyridazinone compounds” (SYNGENTA PARTICIPATIONS AG, priority 2016, dated 2021).

Columns and labels:
Assay type in all cases: in vivo
Zea mays (ZEAMX) = experiment: Post-emergence glasshouse herbicide test, percentage damage to crop plant; conditions: POST Application, 125 g/ha, evaluated after 14 days; crop (corn)
Procedure: (§1) Seeds of a variety of test species were sown in standard soil in pots (Amaranthus retoflexus (AMARE), Abutilon theophrasti (ABUTH), Digitaria sanguinalis (DIGSA), Setaria faberi (SETFA) and Zea mays (ZEAMX). After cultivation for 10 days under controlled conditions in a glasshouse (at 24/16° C., day/night; 14 hours light; 65% humidity), the plants were sprayed with an aqueous spray solution derived from the formulation of the technical active ingredient in 0.6 ml acetone and 45 ml formulation solution containing 10.6% Emulsogen EL (Registry number 61791-12-6), 42.2% N-methyl pyrrolidone, 42.2% dipropylene glycol monomethyl ether (CAS RN 34590-94-8) and 0.2% X-77 (CAS RN 11097-66-8). The test plants were then grown in a glasshouse under controlled conditions in a glasshouse (at 24/16° C., day/night; 14 hours light; 65% humidity) and watered twice daily. After 14 days the test is evaluated for the percentage damage caused to the plant. The biological activities are shown in the following table on a five point scale (5=80-100%; 4=60-79%; 3=40-59%; 2=20-39%; 1=0-19%).

[1] = tested on: Digitaria sanguinalis (DIGSA); experiment: Post-emergence glasshouse herbicide test, percentage damage to plant; conditions: POST Application, 125 g/ha, evaluated after 14 days
Procedure: as §1

Setaria faberi (SETFA) = experiment: as above; conditions: POST Application, 125 g/ha, evaluated after 14 days
Procedure: as §1

[2] = tested on: Abutilon theophrasti (ABUTH); experiment: as above; conditions: POST Application, 125 g/ha, evaluated after 14 days
Procedure: as §1

[3] = tested on: Amaranthus retoflexus (AMARE); experiment: as above; conditions: POST Application, 125 g/ha, evaluated after 14 days
Procedure: as §1

Compound | ZEAMX percentage damage caused to the plant (five point scale) (Zea mays (ZEAMX)) | DIGSA percentage damage caused to the plant (five point scale) [1] | SETFA percentage damage caused to the plant (five point scale) (Setaria faberi (SETFA)) | ABUTH percentage damage caused to the plant (five point scale) [2] | AMARE percentage damage caused to the plant (five point scale) [3]
Cc1cc(C(=O)C2=C(O)CCCC2=O)c(=O)n(CC(=O)N(C)C)n1 [Compound 1.001] | 1 (1=0-19%) | 5 (5=80-100%) | 5 (5=80-100%) | 5 (5=80-100%) | 5 (5=80-100%)
Cc1cc(C(=O)C2=C([O-])CCCC2=O)c(=O)n(CCC(=O)N(C)C)n1.[Na+] [Compound 1.002, sodium 2-[2-[3-(dimethylamino)-3-oxo-propyl]-6-methyl-3-oxo-pyridazine-4-carbonyl]-3-oxo-cyclohexen-1-olate] | 1 (1=0-19%) | 5 (5=80-100%) | 5 (5=80-100%) | 5 (5=80-100%) | 5 (5=80-100%)
Cc1cc(C(=O)C2=C(O)CCCC2=O)c(=O)n(CCC(=O)N2CCOCC2)n1 [Compound 1.004] | 1 (1=0-19%) | 5 (5=80-100%) | 5 (5=80-100%) | 5 (5=80-100%) | 5 (5=80-100%)
CNC(=O)CCn1nc(C)cc(C(=O)C2=C(O)CCCC2=O)c1=O [Compound 1.006] | 1 (1=0-19%) | 5 (5=80-100%) | 5 (5=80-100%) | 4 (4=60-79%) | 5 (5=80-100%)
CCN(CC)C(=O)CCn1nc(C)cc(C(=O)C2=C(O)CCCC2=O)c1=O [Compound 1.007] | 1 (1=0-19%) | 5 (5=80-100%) | 5 (5=80-100%) | 5 (5=80-100%) | 5 (5=80-100%)
CNC(=O)OCCn1nc(C)cc(C(=O)C2=C(O)CCCC2=O)c1=O [Compound 1.008] | 1 (1=0-19%) | 5 (5=80-100%) | 5 (5=80-100%) | 5 (5=80-100%) | 5 (5=80-100%)
Cc1cc(C(=O)C2=C(O)CCCC2=O)c(=O)n(CCOC(=O)N(C)C)n1 [Compound 1.009] | 1 (1=0-19%) | 5 (5=80-100%) | 4 (4=60-79%) | 5 (5=80-100%) | 5 (5=80-100%)
Cc1cc(C(=O)C2=C([O-])CC(C)CC2=O)c(=O)n(CCC(=O)N(C)C)n1.[Na+] (stereo not drawn) [Compound 1.010] | 1 (1=0-19%) | 5 (5=80-100%) | 5 (5=80-100%) | 5 (5=80-100%) | 5 (5=80-100%)
CCN(C)C(=O)CCn1nc(C)cc(C(=O)C2=C([O-])CCCC2=O)c1=O.[Na+] [Compound 1.013] | 1 (1=0-19%) | 5 (5=80-100%) | 5 (5=80-100%) | 5 (5=80-100%) | 5 (5=80-100%)
Cc1cc(C(=O)C2=C([O-])CCCC2=O)c(=O)n(CCC(=O)N(C)CC(F)(F)F)n1.[Na+] [Compound 1.014] | 1 (1=0-19%) | 5 (5=80-100%) | 5 (5=80-100%) | 5 (5=80-100%) | 5 (5=80-100%)
CN(C)C(=O)CCn1nc(C2CC2)cc(C(=O)C2=C([O-])CCCC2=O)c1=O.[Na+] [Compound 1.016] | 1 (1=0-19%) | 5 (5=80-100%) | 4 (4=60-79%) | 5 (5=80-100%) | 5 (5=80-100%)
Cc1cc(C(=O)C2=C([O-])CCCC2=O)c(=O)n(CC(F)(F)C(=O)N(C)C)n1.[Na+] [Compound 1.018] | 1 (1=0-19%) | 5 (5=80-100%) | 5 (5=80-100%) | 5 (5=80-100%) | 5 (5=80-100%)
Cc1cc(C(=O)C2=C([O-])CC(C)CC2=O)c(=O)n(CCC(=O)N(C)CC(F)(F)F)n1.[Na+] (stereo not drawn) [Compound 1.020] | 1 (1=0-19%) | 5 (5=80-100%) | 5 (5=80-100%) | 5 (5=80-100%) | 4 (4=60-79%)
CCN(CC)C(=O)OCCn1nc(C)cc(C(=O)C2=C([O-])CCCC2=O)c1=O.[Na+] [Compound 1.021] | 1 (1=0-19%) | 5 (5=80-100%) | 5 (5=80-100%) | 5 (5=80-100%) | 4 (4=60-79%)
CCN(C)C(=O)OCCn1nc(C)cc(C(=O)C2=C([O-])CCCC2=O)c1=O.[Na+] [Compound 1.022] | 1 (1=0-19%) | 5 (5=80-100%) | 5 (5=80-100%) | 5 (5=80-100%) | 5 (5=80-100%)
Cc1cc(C(=O)C2=C([O-])CCCC2=O)c(=O)n(CCOC(=O)N(C)CC(F)(F)F)n1.[Na+] [Compound 1.023] | 1 (1=0-19%) | 5 (5=80-100%) | 5 (5=80-100%) | 3 (3=40-59%) | 3 (3=40-59%)
Cc1cc(C(=O)C2=C([O-])CCCC2=O)c(=O)n(CCOC(=O)N2CCCC2)n1.[Na+] [Compound 1.024] | 1 (1=0-19%) | 5 (5=80-100%) | 5 (5=80-100%) | 2 (2=20-39%) | 4 (4=60-79%)
Cc1cc(C(=O)C2=C([O-])CCCC2=O)c(=O)n(CCOC(=O)N2CCOCC2)n1.[Na+] [Compound 1.025] | 1 (1=0-19%) | 5 (5=80-100%) | 5 (5=80-100%) | 5 (5=80-100%) | 5 (5=80-100%)
Cc1cc(C(=O)C2=C([O-])CC(C)CC2=O)c(=O)n(CCOC(=O)N(C)C)n1.[Na+] (stereo not drawn) [Compound 1.026] | 1 (1=0-19%) | 5 (5=80-100%) | 5 (5=80-100%) | 5 (5=80-100%) | 5 (5=80-100%)
Cc1cc(C(=O)C2=C([O-])CC(C)(C)CC2=O)c(=O)n(CCOC(=O)N(C)C)n1.[Na+] [Compound 1.027] | 1 (1=0-19%) | 5 (5=80-100%) | 5 (5=80-100%) | 5 (5=80-100%) | 5 (5=80-100%)
Cc1cc(C(=O)C2=C([O-])CCCC2=O)c(=O)n(C(C)C(=O)N(C)C)n1.[Na+] (stereo not drawn) [Compound 1.029] | 1 (1=0-19%) | 5 (5=80-100%) | 5 (5=80-100%) | 5 (5=80-100%) | 5 (5=80-100%)
